According to article PMC4186383, “Evaluation of radical scavenging properties of shikonin” (Journal of Clinical Biochemistry and Nutrition, 2014):

Legend:
[1] = biological target: T1, Nox2 (NADPH oxidase 2, flavocytochrome b558) (Sus scrofa, UniProt P52649); assay: cell-free reconstitution assay, NADPH oxidation; format: biochemical
T1 construct: gene CYBB; detergent-solubilized resting neutrophil membranes (1 pmol Nox2/flavocytochrome b558) plus cytosol; with cytosolic components of the Nox2 system

[2] = biological target: T1, Nox2 (NADPH oxidase 2, flavocytochrome b558); assay: cell-free reconstitution assay, SOD-sensitive cytochrome c reduction; format: biochemical

SMILES | IC50 [1] [nM] | IC50 [2] [nM]
CC(C)=CC[C@@H](O)C1=CC(=O)c2c(O)ccc(O)c2C1=O [shikonin] | 1100 | –
CC(C)=CC[C@H](O)C1=CC(=O)c2c(O)ccc(O)c2C1=O [alkannin] | – | 2200
